The values below are quoted from earlier work in patent publication US20100004191A1, “Compositions of S-adenosyl-L-methionine” (priority 2008, published 2010).

Data set [1] has as its system alcoholic liver cirrhosis. Particulars: oral; patients with alcoholic liver cirrhosis; compared with placebo treated group.
Data set [2] deals with beta-adrenergic. Particulars: L-form vs D-enantiomer.

Turning to `C[S+](CC[C@H](N)C(=O)[O-])C[C@H]1O[C@@H](n2cnc3c(N)ncnc32)[C@H](O)[C@@H]1O` (stereo partly drawn) [S-adenosyl-L-methionine], the “overall mortality and/or progression to liver transplant” value in data set [1] is given as 29%. For `CC(C)NCC(O)COc1cccc2ccccc12` (centres unmarked) [propranolol], in data set [2], the “potency relative to the D-enantiomer” value is 100 times.
